These results are taken from article PMC9534909, “BMS794833 inhibits macrophage efferocytosis by directly binding to MERTK and inhibiting its activity” (Experimental & Molecular Medicine, 2022).

Substitutions are numbered along the chain they refer to.

Experiment [1] addresses T1, MERTK (Homo sapiens, UniProt Q12866, K591R/K693R/K702R/K856R).
T1 construct: kinase domain (residues 571–864), KR mutant
T1 sequence (Q12866 571-864 K591R/K693R/K702R/K856R): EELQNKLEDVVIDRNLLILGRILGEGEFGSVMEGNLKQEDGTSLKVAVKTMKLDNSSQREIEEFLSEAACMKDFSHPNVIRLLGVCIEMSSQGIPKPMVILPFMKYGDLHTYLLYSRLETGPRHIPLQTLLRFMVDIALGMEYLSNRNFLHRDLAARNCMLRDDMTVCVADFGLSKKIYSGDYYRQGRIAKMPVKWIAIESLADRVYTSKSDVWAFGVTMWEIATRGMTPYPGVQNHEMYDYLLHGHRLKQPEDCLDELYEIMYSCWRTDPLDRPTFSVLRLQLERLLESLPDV
Description: X-ray cocrystal structure at […] Å. The experiment is classed as binding.

Experiment [2] has as its target T2, MERTK (Homo sapiens, UniProt Q12866).
T2 construct: kinase domain (residues 571–864, wild type; WT)
T2 sequence (Q12866 571-864): T1 sequence (Q12866 571-864 K591R/K693R/K702R/K856R) with R21K, R123K, R132K, R286K
Description: HTRF KinEASE-TK kinase kinetic assay. The format is biochemical.

`Nc1nccc(Oc2ccc(NC(=O)c3c[nH]cc(-c4ccc(F)cc4)c3=O)cc2F)c1Cl` [BMS794833, N-[4-(2-amino-3-chloropyridin-4-yl)oxy-3-fluorophenyl]-5-(4-fluorophenyl)-4-oxo-1H-pyridine-3-carboxamide]: the “X-ray cocrystal structure at 2.16 Å” value on MERTK [1] was “clear electron density map for BMS794833 showed that it occupied both the ATP-binding pocket and the allosteric back pocket”. This compound also came in with an inhibition constant Ki on MERTK [2] of 22.4 nM.
